According to patent publication US6313116A, “Benzothiazole compounds and their therapeutic use” (Darwin Discovery, Ltd., priority 2000, dated 2001):

Biological target: phosphodiesterase IV
Assay: phosphodiesterase IV inhibitory activity (standard assay procedures)
Format: biochemical
Conditions: assay not given
Source text: The assays used to confirm the phosphodiesterase IV inhibitory activity of compounds of formula (I) are standard assay procedures as disclosed by Schilling et al, Anal. Biochem. 216:154 (1994), Thompson and Strada, Adv. Cycl. Nucl. Res. 8:119 (1979) and Gristwood and Owen, Br. J. Pharmacol. 87:91P (1986).

Question: `CCc1nc2c(OC)ccc(C(=O)Nc3ccnn3C)c2s1` [Example 5, 2-Ethyl-4-methoxybenzothiazole-7-carboxylic acid (2-methyl-2H-pyrazol-3-yl)amide] was tested. Which IC50 did it give?
Answer: The IC50 was 17 nM.
